Where two headings read alike, the source gives them in different places.
Legend:
SHV-5 β-lactamase = target: T1, SHV-5 β-lactamase (Klebsiella pneumoniae, UniProt P0A3M1); assay: β-lactamase enzyme inhibition, SHV-5; assay type: biochemical
T1 construct: made in house; host or cells: E. coli BL21(DE3)
Method in brief: (§1)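 Native untagged β-lactamases were expressed in E. coli BL21(DE3) and purified. Enzyme was preincubated with inhibitor for 15 min at 37° C., then substrate hydrolysis was followed: nitrocefin 100 μM for p99 AmpC and OXA-1 (486 nm, 10 min), imipenem for KPC-2 (300 nm), cefotaxime for SHV-5 (260 nm). IC50 was derived from initial rates relative to uninhibited controls.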

KPC-2 β-lactamase = target: T2, KPC-2 β-lactamase (Klebsiella pneumoniae, UniProt Q9F663); assay: β-lactamase enzyme inhibition, KPC-2; assay type: biochemical
T2 construct: made in house; host or cells: E. coli BL21(DE3)
Method in brief: as §1

[1] = target: T3, VIM-2 metallo β-lactamase (Pseudomonas aeruginosa, UniProt Q9K2N0); assay: β-lactamase enzyme inhibition, VIM-2; assay type: biochemical; details: Nitrocefin 100 μM, 486 nm; 15 min at 37° C. preincubation; read-out: IC50 VIM-2 (Class B)
T3 construct: made in house; host or cells: E. coli BL21(DE3)
Method in brief: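 VIM-2 purified by Q sepharose anion exchange (50 mM Hepes pH 7.5, 0-600 mM NaCl gradient, two runs, >90% purity). Enzyme preincubated with inhibitor 15 min at 37° C; nitrocefin 100 μM final, absorbance at 486 nm followed 10 min. IC50 from initial hydrolysis rates versus inhibitor-free controls.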

p99 AmpC β-lactamase = target: T4, p99 AmpC β-lactamase (Enterobacter cloacae, UniProt P05364); assay: β-lactamase enzyme inhibition, p99 AmpC; assay type: biochemical
T4 construct: made in house; host or cells: E. coli BL21(DE3)
Method in brief: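 Native untagged E. cloacae p99 AmpC was expressed in E. coli BL21(DE3) and purified by cation exchange and gel filtration. Enzyme was preincubated with inhibitor at 37°C for 15 min.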

OXA-1 β-lactamase = target: T5, OXA-1 β-lactamase (Escherichia coli, UniProt P13661); assay: β-lactamase enzyme inhibition, OXA-1; assay type: biochemical; details: Nitrocefin 100 μM, 486 nm; 15 min at 37° C. preincubation; read-out: IC50 OXA-1 (Class D)
T5 construct: made in house; host or cells: E. coli BL21(DE3)
Method in brief: as §1

[2] = test system: E. coli ESBL4 expressing CTX-M-15; assay: broth microdilution MIC, E. coli CTX-M-15; assay type: cell-based; details: Fixed CAZ (ceftazidime) 4 μg/mL
Method in brief: (§2)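 Following CLSI broth microdilution, plates were read by eye for MIC after 16–20 h incubation at 37 °C. Each well held a fixed 4 μg/mL β-lactam overlay plus test compound serially halved from 32 to 0.25 μg/mL in CAMHB. Inocula came from 3–5 h broth cultures.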

[3] = test system: E. cloacae 144200 expressing Class C P99 AmpC; assay: broth microdilution MIC, E. cloacae P99; assay type: cell-based; details: Fixed CAZ (ceftazidime) 4 μg/mL
Method in brief: as §2

[4] = test system: K. pneumoniae 156319 expressing KPC-3; assay: broth microdilution MIC, K. pneumoniae KPC-3; assay type: cell-based; details: Fixed Mero (meropenem) 4 μg/mL
Method in brief: as §2

[5] = test system: P. aeruginosa Ps296 expressing VIM-2; assay: broth microdilution MIC, P. aeruginosa VIM-2; assay type: cell-based; details: Fixed Mero (meropenem) 4 μg/mL
Method in brief: as §2

[6] = test system: K. pneumoniae A-1797 expressing KPC-2 and VIM-4; assay: broth microdilution MIC, K. pneumoniae KPC-2 and VIM-4; assay type: cell-based; details: Fixed Mero (meropenem) 4 μg/mL
Method in brief: as §2

[7] = test system: S. aureus MSSA-7 producing penicillinase PC-1; assay: broth microdilution MIC, S. aureus PC-1; assay type: cell-based; details: Fixed Pip (piperacillin) 4 μg/mL
Method in brief: as §2

[8] = imipenem substrate, 300 nm, 15 min at 37° C. preincubation, read-out: IC50 KPC-2 (Class A)

T5 sequence (P13661 26-276): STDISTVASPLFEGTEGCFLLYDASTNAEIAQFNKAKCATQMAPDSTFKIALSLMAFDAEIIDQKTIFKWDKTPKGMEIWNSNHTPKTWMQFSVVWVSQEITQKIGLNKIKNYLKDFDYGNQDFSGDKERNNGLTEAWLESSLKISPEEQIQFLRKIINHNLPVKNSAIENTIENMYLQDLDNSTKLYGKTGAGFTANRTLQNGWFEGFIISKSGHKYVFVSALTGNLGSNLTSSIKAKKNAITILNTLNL
T2 sequence (Q9F663 25-293, looked up): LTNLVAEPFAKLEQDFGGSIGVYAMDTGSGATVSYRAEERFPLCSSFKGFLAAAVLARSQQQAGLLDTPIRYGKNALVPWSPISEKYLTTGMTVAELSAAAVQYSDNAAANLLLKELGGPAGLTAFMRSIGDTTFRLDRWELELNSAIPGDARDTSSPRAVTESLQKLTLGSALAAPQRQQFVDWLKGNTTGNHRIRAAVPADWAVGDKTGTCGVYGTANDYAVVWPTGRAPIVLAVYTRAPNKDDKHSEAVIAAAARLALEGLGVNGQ
T4 sequence (P05364 21-381): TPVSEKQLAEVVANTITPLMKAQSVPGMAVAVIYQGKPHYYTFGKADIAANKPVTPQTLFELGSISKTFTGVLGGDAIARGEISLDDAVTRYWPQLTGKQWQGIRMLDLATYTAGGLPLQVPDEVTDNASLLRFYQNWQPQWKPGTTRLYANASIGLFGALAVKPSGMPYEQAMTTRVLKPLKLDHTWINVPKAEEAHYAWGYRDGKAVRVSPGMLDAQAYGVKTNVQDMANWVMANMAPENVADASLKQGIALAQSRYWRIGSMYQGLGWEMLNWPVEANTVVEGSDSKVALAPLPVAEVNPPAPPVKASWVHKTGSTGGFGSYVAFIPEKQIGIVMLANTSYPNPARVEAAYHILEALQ
T1 sequence (P0A3M1 22-286): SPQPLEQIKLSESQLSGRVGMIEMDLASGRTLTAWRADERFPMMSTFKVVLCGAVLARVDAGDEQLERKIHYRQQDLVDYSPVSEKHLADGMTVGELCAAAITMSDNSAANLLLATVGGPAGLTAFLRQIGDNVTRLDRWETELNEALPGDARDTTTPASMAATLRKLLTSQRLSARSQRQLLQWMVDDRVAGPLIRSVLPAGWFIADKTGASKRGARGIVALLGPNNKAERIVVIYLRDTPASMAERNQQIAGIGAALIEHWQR

Compound	IC50 (SHV-5 β-lactamase)	IC50 (KPC-2 β-lactamase; [8])	IC50 [1]	IC50 (p99 AmpC β-lactamase)	IC50 (OXA-1 β-lactamase)	MIC of exemplary compounds in presence of fixed β-lactams, E. coli ESBL4 CTX-M-15 [2]	MIC of exemplary compounds in presence of fixed β-lactams, E. cl. 144200 p99 AmpC [3]	MIC of exemplary compounds in presence of fixed β-lactams, K.P. 156319 KPC-3 [4]	MIC of exemplary compounds in presence of fixed β-lactams, P. aerug. Ps296 VIM-2 [5]	MIC of exemplary compounds in presence of fixed β-lactams, K.P. A-1797 KPC-2 VIM-4 [6]	MIC of exemplary compounds in presence of fixed β-lactams, S. aureus MSSA-7 PC-1 [7]	IC50 (KPC-2 β-lactamase)
CNC(=O)CCC(=O)N[C@H]1Cc2cccc(C(=O)O)c2OB1O [Example 19, (R)-2-Hydroxy-3-(3-methylcarbamoyl-propionylamino)-3,4-dihydro-2H-benzo[e][1,2]oxaborinine-8-carboxylic acid]	< 100 nM	< 100 nM	1000 to 10000 nM	< 100 nM	< 100 nM	C (C represents the MIC in the presence of ≤4 g/mL of a β-lactamase inhibitor)	C (C represents the MIC in the presence of ≤4 g/mL of a β-lactamase inhibitor)	C (C represents the MIC in the presence of ≤4 g/mL of a β-lactamase inhibitor)	A (A represents an MIC of the fixed β-lactam antibiotic in the presence of >32 g/mL of a β-lactamase inhibitor)	B (B represents the MIC in the presence of between 8 and 32 g/mL of a β-lactamase inhibitor)	B (B represents the MIC in the presence of between 8 and 32 g/mL of a β-lactamase inhibitor)	
CC(=O)NCCC(=O)N[C@H]1Cc2cccc(C(=O)O)c2OB1O [Example 20, (R)-3-(3-Acetylamino-propionylamino)-2-hydroxy-3,4-dihydro-2H-benzo[e][1,2]oxaborinine-8-carboxylicacid]	< 100 nM	< 100 nM	1000 to 10000 nM	< 100 nM	< 100 nM	C (C represents the MIC in the presence of ≤4 g/mL of a β-lactamase inhibitor)	C (C represents the MIC in the presence of ≤4 g/mL of a β-lactamase inhibitor)	C (C represents the MIC in the presence of ≤4 g/mL of a β-lactamase inhibitor)	A (A represents an MIC of the fixed β-lactam antibiotic in the presence of >32 g/mL of a β-lactamase inhibitor)	B (B represents the MIC in the presence of between 8 and 32 g/mL of a β-lactamase inhibitor)	B (B represents the MIC in the presence of between 8 and 32 g/mL of a β-lactamase inhibitor)	
CS(=O)(=O)CCC(=O)N[C@H]1Cc2cccc(C(=O)O)c2OB1O [Example 21, (R)-2-Hydroxy-3-(3-methanesulfonyl-propionylamino)-3,4-dihydro-2H-benzo[e][1,2]oxaborinine-8-carboxylic acid]	< 100 nM	< 100 nM	1000 to 10000 nM	< 100 nM	< 100 nM	C (C represents the MIC in the presence of ≤4 g/mL of a β-lactamase inhibitor)	C (C represents the MIC in the presence of ≤4 g/mL of a β-lactamase inhibitor)	C (C represents the MIC in the presence of ≤4 g/mL of a β-lactamase inhibitor)	A (A represents an MIC of the fixed β-lactam antibiotic in the presence of >32 g/mL of a β-lactamase inhibitor)	B (B represents the MIC in the presence of between 8 and 32 g/mL of a β-lactamase inhibitor)	C (C represents the MIC in the presence of ≤4 g/mL of a β-lactamase inhibitor)	
CS(=O)(=O)NCCC(=O)N[C@H]1Cc2cccc(C(=O)O)c2OB1O [Example 22, (R)-2-Hydroxy-3-(3-methanesulfonylamino-propionylamino)-3,4-dihydro-2H-benzo[e][1,2]oxaborinine-8-carboxylic acid]	< 100 nM		1000 to 10000 nM	< 100 nM	< 100 nM	C (C represents the MIC in the presence of ≤4 g/mL of a β-lactamase inhibitor)	C (C represents the MIC in the presence of ≤4 g/mL of a β-lactamase inhibitor)	C (C represents the MIC in the presence of ≤4 g/mL of a β-lactamase inhibitor)	B (B represents the MIC in the presence of between 8 and 32 g/mL of a β-lactamase inhibitor)	B (B represents the MIC in the presence of between 8 and 32 g/mL of a β-lactamase inhibitor)	C (C represents the MIC in the presence of ≤4 g/mL of a β-lactamase inhibitor)	< 100 nM
NC(=O)NCCC(=O)N[C@H]1Cc2cccc(C(=O)O)c2OB1O [Example 23, (R)-2-Hydroxy-3-(3-ureido-propionylamino)-3,4-dihydro-2H-benzo[e][1,2]oxaborinine-8-carboxylic acid]	100 to 1000 nM	< 100 nM	1000 to 10000 nM	< 100 nM	< 100 nM	C (C represents the MIC in the presence of ≤4 g/mL of a β-lactamase inhibitor)	C (C represents the MIC in the presence of ≤4 g/mL of a β-lactamase inhibitor)	C (C represents the MIC in the presence of ≤4 g/mL of a β-lactamase inhibitor)	C (C represents the MIC in the presence of ≤4 g/mL of a β-lactamase inhibitor)	B (B represents the MIC in the presence of between 8 and 32 g/mL of a β-lactamase inhibitor)	C (C represents the MIC in the presence of ≤4 g/mL of a β-lactamase inhibitor)	
CC(C)(Cl)CCC(=O)N[C@H]1Cc2cccc(C(=O)O)c2OB1O [Example 24, (R)-3-(4-chloro-4-methylpentanamido)-2-hydroxy-3,4-dihydro-2H-benzo[e][1,2]oxaborinine-8-carboxylicacid]	< 100 nM	< 100 nM	1000 to 10000 nM	< 100 nM	< 100 nM	C (C represents the MIC in the presence of ≤4 g/mL of a β-lactamase inhibitor)	C (C represents the MIC in the presence of ≤4 g/mL of a β-lactamase inhibitor)	C (C represents the MIC in the presence of ≤4 g/mL of a β-lactamase inhibitor)	B (B represents the MIC in the presence of between 8 and 32 g/mL of a β-lactamase inhibitor)	B (B represents the MIC in the presence of between 8 and 32 g/mL of a β-lactamase inhibitor)	C (C represents the MIC in the presence of ≤4 g/mL of a β-lactamase inhibitor)	

Source: patent US11008346B2, “Beta-lactamase inhibitors” (priority 2014, dated 2021)
